Data published in US4973587A, “3-arylcarbonyl-1-aminoalkyl-1H-indole-containing antiglaucoma method” (Sterling Drug Inc., priority 1990, dated 1990).

Assays:
mouse vas deferens = mouse vas deferens test (MVD); type: cell-based; settings: inhibition of contractions in mouse vas deferens preparation in vitro, active at 5.0 μM or less
From the text: (§1) Med. Assoc. 217, 1392 (1971)]. […] Opth 7, 921-923 (1975); Green and Pederson, Effect of delta-9 Tetrahydrocannabinol on Aqueous Dynamics and Ciliary Body Permeability in the Rabbit Eye., Exptl. Eye Research 15, 499-507 (1973); Colasanti, Craig and Allara, Intraocular Pressure, Ocular Toxicity and Neurotoxicity after Administration of Cannabinol or Cannibigerol, Exptl. Eye Research 39, 252-259 (1984)]. Similarly, synthetic cannabinoids also reduce intraocular pressure [Green, Symunds, Oliver and Elijah, Intraocular Pressure Following Systemic Administration of Cannabinoids, Curr. Eye Research 2, 247-253 (1982); Tiedeman, Shields, Weber, Crow, Coccetto, Harris and Howes, Ophthalmology., 88, 270-277 (1981); Colasanti et al., supra]. Cannabinoid receptor binding sites can be defined as those to which radio-labelled 4-(1,1-dimethylheptyl)-2,3'-dihydroxy-6'alpha-(3-hydroxypropyl)-1',2',3',4',5',6'-hexahydrobiphenyl (CP 55940) binds in a specific and saturable manner, and the binding sites are heterogeneously distributed in the brain [Devane, Dysarz, Johnson, Melvin and Howlett, Determination and Characterization of a Cannabinoid Receptor in Rat Brain, Molecular Pharm. 34, 605-613 (1988)]. Natural and synthetic cannabinoids and representative examples of the compounds of the present invention bind to CP 55940 binding sites. […] It is believed that agonist activity at the cannabinoid receptor mediates the anti-glaucoma actions of cannabinoids, and that agonist activity at this receptor correlates with ocular pressure lowering actions in man.

[1] = biological target: T1, cannabinoid receptor (CP 55940 binding sites) (Rattus norvegicus, UniProt P20272); assay: CP55490 binding assay (CP); settings: for inhibition at 1 µM: read-out: CP % I; for IC50: CP55490 binding assay
T1 construct: from tissue
From the text: as §1

intraocular pressure = settings: topical application or systemic injection; cited from earlier work

T1 sequence (P20272 whole entry): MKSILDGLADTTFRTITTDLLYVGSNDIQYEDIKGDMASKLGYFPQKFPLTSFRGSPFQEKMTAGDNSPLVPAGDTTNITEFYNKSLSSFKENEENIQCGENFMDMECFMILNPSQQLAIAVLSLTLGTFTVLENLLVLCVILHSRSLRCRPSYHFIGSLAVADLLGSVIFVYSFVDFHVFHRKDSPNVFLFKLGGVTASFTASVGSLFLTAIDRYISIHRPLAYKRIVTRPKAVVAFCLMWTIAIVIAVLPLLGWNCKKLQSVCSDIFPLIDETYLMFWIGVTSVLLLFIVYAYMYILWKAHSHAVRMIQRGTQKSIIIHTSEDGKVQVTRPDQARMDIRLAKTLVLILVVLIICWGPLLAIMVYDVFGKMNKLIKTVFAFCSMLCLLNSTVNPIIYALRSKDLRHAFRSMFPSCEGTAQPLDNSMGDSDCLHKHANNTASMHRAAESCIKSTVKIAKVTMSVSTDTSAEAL

SMILES	IC50 (mouse vas deferens; Mus musculus) [nM]	further results
COc1ccc(C(=O)c2cn(CCN3CCOCC3)c3ccccc23)cc1 [Example 1A, 3-(4-methoxybenzoyl)-1-[2-(4-morpholinyl)ethyl]1H-indole methanesulfonate monohydrate]	100	inhibition at 1 µM [1]: 59%
Cc1c(C(=O)c2cccc3ccccc23)c2ccccc2n1CCN1CCOCC1 [Example 1AP]	15	IC50 [1]: 51 nM
COc1ccc(C(=O)c2c(C)n(CCN3CCOCC3)c3ccccc23)cc1 [Example 1B]		IC50 (mouse vas deferens): 500 nM; IC50 [1]: 3000 to 10000 nM
COc1ccc(C(=O)c2c(C)n(CCN3CCOCC3)c3ccccc23)c(OC)c1OC [Example 1CA]	70	inhibition at 1 µM [1]: 70%
Cc1c(C(=O)c2csc3ccccc23)c2ccccc2n1CCN1CCOCC1 [Example 1Q]	18	IC50 [1]: ~50 nM
Cc1c(C(=O)c2ccccc2F)c2ccccc2n1C(C)CN1CCOCC1 (centres unmarked) [Example 2C]		IC50 (mouse vas deferens): 490 nM
CC(CN1CCOCC1)n1cc(C(=O)c2ccccc2F)c2ccccc21 (centres unmarked) [Example 2E]	2400	
COc1ccc(C(=O)c2c(C)n(C(C)CN3CCOCC3)c3ccccc23)cc1 (centres unmarked) [Example 2G]	1300	
Cc1cccc2c(C(=O)c3ccccc3)cn(C(C)CN3CCOCC3)c12 (centres unmarked) [Example 2H]	177	
Cc1ccccc1C(=O)c1c(C)n(CCN2CCOCC2)c2ccccc12 [Example 2K]	710	
Cc1c(C(=O)c2coc3ccccc23)c2ccccc2n1CCN1CCOCC1 [Example 2N]	52	
COc1ccc(C(=O)c2c(Cl)n(CCN3CCOCC3)c3ccccc23)cc1 [Example 2Q]	176	
Cc1c(C(=O)c2cccc3ccccc23)c2ccccc2n1C(C)CN1CCOCC1 (centres unmarked) [Example 2Y]	10	
O=C(c1cccc2ccccc12)c1cn(CCN2CCOCC2)c2ccccc12 [Example 2Z]	6	IC50 [1]: 88 nM
Cc1c(C(=O)c2cccc3ccccc23)c2ccccc2n1CCN1CCCCC1 [Example 3A, 2-methyl-3-(1-naphthylcarbonyl)-1-[2-(1-piperidinyl)ethyl]-1H-indole]	66	
COc1ccc(C(=O)c2c(C)n(CCN3CCCC(O)C3)c3ccccc23)cc1 (centres unmarked) [Example 3B]	> 10000	

SMILES	IC50 (mouse vas deferens; Mus musculus) [nM]	further results
Cc1c(C(=O)c2cccc3ccccc23)c2ccccc2n1CCN1CCCC(O)C1 (centres unmarked) [Example 3D]	236	IC50 [1]: 200 to 500 nM
Cc1c(C(=O)c2cccc3ccccc23)c2ccccc2n1CCN1CCOC(C)C1 (centres unmarked) [Example 3E]	210	
CCN(CC)CCCn1c(C)c(C(=O)c2ccc(OC)cc2)c2ccccc21 [Example 3J]	> 10000	
Cc1c(C(=O)c2cccc3ccccc23)c2ccccc2n1CCN1CCOCC1C (centres unmarked) [Example 3K]	30	
Cc1c(C(=O)c2cccc(N)c2)c2ccccc2n1CCN1CCOCC1 [Example 4A, 2-methyl-3-(3-aminobenzoyl)-1-[2 (4-morpholinyl)ethyl]-1H-indole]	700	
Cc1c(C(=O)c2ccc(N)cc2)c2ccccc2n1CCN1CCOCC1 [Example 4B, 2-methyl-3-(4-aminobenzoyl)-1-[2-(4morpholinyl)ethyl]-1H-indole]	520	
Cc1c(C(=O)c2cccc(O)c2O)c2ccccc2n1CCN1CCOCC1 [Example 5A, 2-methyl-3-(2,3-dihydroxybenzoyl)-1-[2-(4-morpholinyl)ethyl]-1H-indole]	180	
O=C(c1cccc2ccccc12)c1cn(CCN2CCOCC2)c2ccc(O)cc12 [Example 5B, 5-hydroxy-3-(1-naphthylcarbonyl)-1-[2-(4-morpholinyl)ethyl]-1H-indole]	20	
COc1ccc(C(=O)c2cn(CCN3CCOCC3)c3c(O)cccc23)cc1 [Example 5C, 7-hydroxy-3-(4-methoxybenzoyl)-1-[2-(4-morpholinyl)ethyl]-1H-indole]	400	
Cc1c(C(=O)c2ccc(C#N)c3ccccc23)c2ccccc2n1CCN1CCOCC1 [Example 7A, 2-methyl-3-(4-cyano-1-naphthylcarbonyl)-1-[2-(4-morpholinyl)ethyl]-1H-indole]	14	
Cc1c(C(=O)c2ccc(-n3ccnc3)c3ccccc23)c2ccccc2n1CCN1CCOCC1 [Example 7B]	5	
O=C(c1ccc(-n2ccnc2)c2ccccc12)c1cn(CCN2CCOCC2)c2ccccc12 [Example 7C]	8	
N#Cc1ccc(C(=O)c2cn(CCN3CCOCC3)c3ccccc23)c2ccccc12 [Example 7D]	5	
COc1ccc(C(=S)c2c(C)n(CCN3CCOCC3)c3ccccc23)cc1 [Example 9, 2-methyl-3-(4-methoxyphenylthiocarbonyl)-1-[2-(4-morpholinyl)-ethyl]-1H-indole]	110	
CCCCCc1cc(O)c2c(c1)OC(C)(C)[C@@H]1CCC(C)=C[C@@H]21 [delta-9 tetrahydrocannabinol]		intraocular pressure (intraocular pressure): reduces intraocular pressure
